pEC50: −log10 of the molar value.

The target in this experiment is T1, human OX2R (Homo sapiens, UniProt O43614).
T1 construct: expressed in transfected cells; host or cells: CHO (Chinese hamster ovary) cells grown under G418 selection
T1 sequence (O43614 1-444): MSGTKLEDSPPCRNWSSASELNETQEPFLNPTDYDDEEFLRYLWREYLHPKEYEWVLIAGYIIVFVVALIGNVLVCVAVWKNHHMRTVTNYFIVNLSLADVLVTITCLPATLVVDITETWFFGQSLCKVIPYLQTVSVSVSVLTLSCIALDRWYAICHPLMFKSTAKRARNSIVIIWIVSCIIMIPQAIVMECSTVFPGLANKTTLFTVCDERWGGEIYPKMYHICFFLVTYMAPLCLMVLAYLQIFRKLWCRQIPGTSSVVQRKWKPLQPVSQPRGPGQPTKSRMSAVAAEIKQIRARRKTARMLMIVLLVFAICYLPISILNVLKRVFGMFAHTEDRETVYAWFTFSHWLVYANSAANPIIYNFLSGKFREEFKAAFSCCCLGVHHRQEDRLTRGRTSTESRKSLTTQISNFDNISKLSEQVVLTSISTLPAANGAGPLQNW
In words: IPOne (IP-1 accumulation) assay in CHO cells expressing human OX2R. The following applies: for pEC50: CHO cells expressing human OX2R, IP-One assay, 2 h incubation, four parameter logistic fit, read-out: OX2R Potency, EC50; for % of maximum agonist effect (relative to Orexin A): percent effect vs mean max effect of a reference compound at 1 uM (100% activity vs Orexin A), human OX2R. The experiment is classed as cell-based. An excerpt: The utility of the compounds in accordance with the present invention as orexin receptor OX1R and/or OX2R agonists may be readily determined without undue experimentation by methodology well known in the art. Both the OX1R and/or OX2R G-coupled protein receptors (GPCRs) couple through the Gαq signaling pathway, which ultimately promotes calcium mobilization via inositol triphosphate (IP3) production. […] The utility of the compounds in accordance with the present invention as orexin receptor OX1R and/or OX2R agonists may be determined utilizing this assay.
In a typical experiment, the OX1 and OX2 receptor agonist activity is determined in accordance with the following general experimental method. Chinese hamster ovary (CHO) cells expressing human OX1R and/or the human OX2R were grown in Iscove's modified DMEM containing glutaMAX™, 1% G418, 100 U/mL penicillin, 100 μg/mL streptomycin and 10% heat-inactivated qualified fetal bovine serum (FBS). […] During this incubation, IP-one detection reagents were prepared (38:1:1 lysis buffer:D2:AB-cryptate reagents).
For each compound, data were fit to a four parameter logistic fit (ActivityBase software) and the EC50 was reported as the inflection point of the resulting curve. […] The intrinsic orexin receptor agonist activity of a compound which may be used in the present invention may be determined by these assays.

Broadly, the pEC50 is the negative decadic logarithm of the EC50, by convention in mol/L. Turning to `CCN(C(=O)N[C@@H](CCC(F)(F)F)C(F)(F)F)C(c1cc(-c2cn3cc(C)nc3c(OC)n2)c(OC)cn1)C(F)F` (stereo partly drawn) [Example 2-17, 1-(2,2-difluoro-1-(5-methoxy-4-(8-methoxy-2-methylimidazo[1,2-a]pyrazin-6-yl)pyridin-2-yl)ethyl)-1-ethyl-3-((S)-1,1,1,5,5,5-hexafluoropentan-2-yl)urea], the pEC50 was 8.49 and the “% of maximum agonist effect (relative to Orexin A)” value turned out to be 101.7%.
In the case of `CCN(C(=O)N[C@@H](COC1CC1)C(F)(F)F)[C@@H](c1cc(-c2cn3cc(C)nc3c(OC)n2)c(OC)cn1)C(F)(F)F` [Example 2-18, 3-((S)-3-cyclopropoxy-1,1,1-trifluoropropan-2-yl)-1-ethyl-1-((S)-2,2,2-trifluoro-1-(5-methoxy-4-(8-methoxy-2-methylimidazo[1,2-a]pyrazin-6-yl)pyridin-2-yl)ethyl)urea], the pEC50 is 7.52 and the “% of maximum agonist effect (relative to Orexin A)” value is on record as 99.6%.
For `COc1cnc([C@H](N(C(=O)N[C@@H](CCC(F)(F)F)C(F)(F)F)C2CC2)C(F)(F)F)cc1-c1cn2cc(C)nc2c(OC)n1` [Example 2-19, 1-cyclopropyl-3-((S)-1,1,1,5,5,5-hexafluoropentan-2-yl)-1-(2,2,2-trifluoro-1-(5-methoxy-4-(8-methoxy-2-methylimidazo[1,2-a]pyrazin-6-yl)pyridin-2-yl)ethyl)urea], in that order: 8.24 and 102.0%.
In the case of `CC[C@H](CCC(F)(F)F)NC(=O)N(CC(F)F)C(c1cc(-c2cn3ncnc3c(OC)n2)c(OC)cn1)C(F)(F)F` (stereo partly drawn) [Example 2-20, 1-(2,2-difluoroethyl)-1-(2,2,2-trifluoro-1-(5-methoxy-4-(8-methoxy-[1,2,4]triazolo[1,5-a]pyrazin-6-yl)pyridin-2-yl)ethyl)-3-((R)-6,6,6-trifluorohexan-3-yl)urea], the negative-log EC50 (pEC50) is 6.47 and the “% of maximum agonist effect (relative to Orexin A)” value is reported as 99.7%.
For `CC[C@H](CCC(F)(F)F)NC(=O)N(CC)[C@@H](c1cc(-c2cn3ccnc3c(OC)n2)c(OC)cn1)C(F)(F)F` [Example 2-21, 1-ethyl-1-((S)-2,2,2-trifluoro-1-(5-methoxy-4-(8-methoxyimidazo[1,2-a]pyrazin-6-yl)pyridin-2-yl)ethyl)-3-((R)-6,6,6-trifluorohexan-3-yl)urea], in that order: 9.10 and 99.6%.
For `CCN(C(=O)N[C@@H](CCC(F)(F)F)C(F)(F)F)[C@@H](c1cccc(-c2cn3ccnc3c(OC)n2)c1)C(F)(F)F` [Example 2-22, N-ethyl-N′-[(2S)-1,1,1,5,5,5-hexafluoropentan-2-yl]-N-{2,2,2-trifluoro-1-[3-(8-methoxyimidazo[1,2-a]pyrazin-6-yl)phenyl]ethyl}urea], in that order: 8.55 and 101.5%.
For `CCN(C(=O)N[C@@H](CCC(F)(F)F)C(F)(F)F)[C@@H](c1ccc(OC)c(-c2ccc3nccn3c2)c1)C(F)(F)F` [Example 2-23, 1-ethyl-3-((S)-1,1,1,5,5,5-hexafluoropentan-2-yl)-1-((S)-2,2,2-trifluoro-1-(3-(imidazo[1,2-a]pyridin-6-yl)-4-methoxyphenyl)ethyl)urea], in that order: 8.57 and 100.8%.
Turning to `CCN(C(=O)NC(C)(C)C#N)[C@H](C)c1cccc(-c2cn3ccnc3c(OC)n2)c1` [Example 2-25, (R)-3-(2-cyanopropan-2-yl)-1-ethyl-1-(1-(3-(8-methoxyimidazo[1,2-a]pyrazin-6-yl)phenyl)ethyl)urea], the pEC50 was 6.44 and the “% of maximum agonist effect (relative to Orexin A)” value is 98.0%.
For `CCN(C(=O)NC(C)c1nc(C)no1)[C@@H](c1cc(-c2cn3ccnc3c(OC)n2)c(OC)cn1)C(F)(F)F` (stereo partly drawn) [Example 2-26, 1-ethyl-3-(1-(3-methyl-1,2,4-oxadiazol-5-yl)ethyl)-1-((S)-2,2,2-trifluoro-1-(5-methoxy-4-(8-methoxyimidazo[1,2-a]pyrazin-6-yl)pyridin-2-yl)ethyl)urea], in that order: 8.07 and 100.5%.
For `CCN(C(=O)N[C@@H]1C[C@@]1(C)C(F)(F)F)[C@@H](c1cc(-c2cn3ccnc3c(OC)n2)c(OC)cn1)C(F)(F)F` [Example 2-27, 1-ethyl-3-((1R,2R)-2-methyl-2-(trifluoromethyl)-cyclopropyl)-1-((S)-2,2,2-trifluoro-1-(5-methoxy-4-(8-methoxyimidazo[1,2-a]pyrazin-6-yl)pyridin-2-yl)ethyl)urea], in that order: 8.03 and 101.1%.
For `CCN(C(=O)N[C@@H](C(C)(C)C)C(F)(F)F)[C@@H](c1cc(-c2cn3ccnc3c(OC)n2)c(OC)cn1)C(F)(F)F` [Example 2-28, 1-ethyl-1-((S)-2,2,2-trifluoro-1-(5-methoxy-4-(8-methoxyimidazo[1,2-a]pyrazin-6-yl)pyridin-2-yl)ethyl)-3-((S)-1,1,1-trifluoro-3,3-dimethylbutan-2-yl)urea], in that order: 7.79 and 99.1%.
For the compound `CCN(C(=O)NC(C)C)[C@@H](c1cc(-c2cn3ccnc3c(OC)n2)c(OC)cn1)C(F)(F)F` [Example 2-29, (S)-1-ethyl-3-isopropyl-1-(2,2,2-trifluoro-1-(5-methoxy-4-(8-methoxyimidazo[1,2-a]pyrazin-6-yl)pyridin-2-yl)ethyl)urea], the pEC50 was 7.62 and the “% of maximum agonist effect (relative to Orexin A)” value is listed as 96.0%.
For `CCN(C(=O)NC1CC(CC(F)(F)F)C1)[C@@H](c1cc(-c2cn3ccnc3c(OC)n2)c(OC)cn1)C(F)(F)F` (stereo partly drawn) [Example 2-30, (S)-1-ethyl-1-(2,2,2-trifluoro-1-(5-methoxy-4-(8-methoxyimidazo[1,2-a]pyrazin-6-yl)pyridin-2-yl)ethyl)-3-(3-(2,2,2-trifluoroethyl)cyclobutyl)urea], in that order: 7.46 and 99.0%.
With `CCN(C(=O)N[C@]1(C)C[C@H]1C(F)(F)F)[C@@H](c1cc(-c2cn3ccnc3c(OC)n2)c(OC)cn1)C(F)(F)F` [Example 2-31, 1-ethyl-3-((1R,2R)-1-methyl-2-(trifluoromethyl)cyclopropyl)-1-((S)-2,2,2-trifluoro-1-(5-methoxy-4-(8-methoxyimidazo[1,2-a]pyrazin-6-yl)pyridin-2-yl)ethyl)urea], the pEC50 was 7.45 and the “% of maximum agonist effect (relative to Orexin A)” value is 99.0%.
For `CCN(C(=O)NC1CC1)[C@@H](c1cc(-c2cn3ccnc3c(OC)n2)c(OC)cn1)C(F)(F)F` [Example 2-32, (S)-3-cyclopropyl-1-ethyl-1-(2,2,2-trifluoro-1-(5-methoxy-4-(8-methoxyimidazo[1,2-a]pyrazin-6-yl)pyridin-2-yl)ethyl)urea], in that order: 7.39 and 101.0%.
For `CCN(C(=O)NC(C1CC(F)(F)CCO1)C(F)(F)F)[C@H](C)c1cccc(-c2cn3ccnc3c(OC)n2)c1` (stereo partly drawn) [Example 2-33, 3-(1-(4,4-difluorotetrahydro-2H-pyran-2-yl)-2,2,2-trifluoroethyl)-1-ethyl-1-((R)-1-(3-(8-methoxyimidazo[1,2-a]pyrazin-6-yl)phenyl)ethyl)urea], in that order: 9.10 and 101.6%.
For `CCN(C(=O)NC(CC(C)=O)C(F)(F)F)[C@@H](c1cc(-c2cn3ccnc3c(OC)n2)c(OC)cn1)C(F)(F)F` (stereo partly drawn) [Example 2-34, 1-ethyl-1-((S)-2,2,2-trifluoro-1-(5-methoxy-4-(8-methoxyimidazo[1,2-a]pyrazin-6-yl)pyridin-2-yl)ethyl)-3-(1,1,1-trifluoro-4-oxopentan-2-yl)urea], in that order: 8.57 and 101.1%.
For the compound `CCN(C(=O)N[C@@H](CCC#N)C(F)(F)F)[C@@H](c1cc(-c2cn3ccnc3c(OC)n2)c(OC)cn1)C(F)(F)F` [Example 2-35, 3-((S)-4-cyano-1,1,1-trifluorobutan-2-yl)-1-ethyl-1-((S)-2,2,2-trifluoro-1-(5-methoxy-4-(8-methoxyimidazo[1,2-a]pyrazin-6-yl)pyridin-2-yl)ethyl)urea], the pEC50 is 9.05 and the “% of maximum agonist effect (relative to Orexin A)” value was 102.3%.

(Values after patent US12692262B2, “Substituted ureas as orexin receptor agonists” (Merck Sharp & Dohme LLC, priority 2020, dated 2026).)
